Laboratory results: patent US20070148765A1, “Preservative-containing virus formulations” (priority 2003, published 2007)
“Also recorded” adds a separate entry of the source.

How the values were obtained:
[1] = system: S. aureus, P. aeruginosa, E. coli, C. albicans, A. niger; test: Antimicrobial effectiveness (AME) testing, overall result; conditions: formulated in A195 buffer
adenovirus = test: QPA assay for adenovirus infectivity (stability of adenovirus in formulation); format: cell-based, adenovirus serotype 5 (Ad5); conditions: for Ad5 stability in the presence of preservative: in A195 buffer with the preservative, short-term accelerated stability, infectivity assays
Description: QPA Assay for Adenovirus Infectivity—The compatibility of preservatives with adenovirus was assessed by measuring the infectivity adenovirus using QPA assay. The QPA assay is based on the finding that the quantity of replicating adenoviral genomes, upon infection of 293 cells, is proportional to the input quantity of infectious adenovirus 24 hours post-infection (P.I.). The accumulated adenoviral genomes are purified using Qiagen 96-well Blood DNA Extraction Kit 24 hrs P.I. and quantitated using Perkin-Elmer TaqMan PCR technology. A standard curve is constructed by using the TaqMan PCR cycle threshold (CT) reflecting the quantity of accumulated adenoviral genomes due to infection and subsequent replication as a function of the input viral infectivity of standard curve material that is determined by independent TCID50 potency assay. The infectivity of samples is interpolated from the standard curve. Infectivity can be determined within 48-72 hours using this procedure. To determine the loss of adenovirus infectivity in stability samples the infectivity of the stability sample and the corresponding −70° C. control of the same formulation are determined during the same QPA run and on the same PCR plate. The loss of infectivity in the stability samples is expressed as log loss of infectivity compared to the −70° C. control.
Results—Adenovirus was formulated in A195 buffer containing preservatives (i.e., the A500 series of Table 3). The infectivity of adenovirus was measured using a Q-PCR based Potency Assay (QPA) after storage at certain temperatures (2-8, 15, 20, 25, 30, and 37° C.) and compared to the control (corresponding sample stored at −70° C.). The stability of adenovirus was quantitatively presented as “Log Loss of Adenovirus Infectivity”. Variability of the QPA assay is reported to be +/−0.15 logs.

[2] = Solubility of preservative in A195 buffer; format: physicochemical

Structure (SMILES)	AME testing, overall result in words [1]	effects on the stability of adenovirus (log loss of infectivity, FIG. 1) (adenovirus; 0.5% (w/v) chlorobutanol or 0.2% (w/v) benzoic acid in A195 pH 6.8, MRKAd5pol 10^10 VP/ml, 37° C. 1-4 weeks vs −70° C.)	Ad5 stability in the presence of preservative (adenovirus)	solubility in A195 buffer [2]
CC(C)(C)CC(C)(C)c1ccc(OCCOCC[N+](C)(C)Cc2ccccc2)cc1 [benzethonium chloride]	effective antimicrobial preservatives	–	–	–
O=C(O)c1ccccc1 [benzoic acid]	failed AME testing	no significant effects	compatible with adenovirus; also recorded: compatible with Ad5	–
OCc1ccccc1 [benzyl alcohol]	effective antimicrobial preservatives	–	very poor stability	–
Cc1cccc(O)c1 [m-cresol]	effective antimicrobial preservatives	–	–	poor solubility
Oc1ccccc1 [phenol]	effective antimicrobial preservatives	–	very unstable	–
